Experiments:
[1] = tested on: HBV replication in HepG2-2.2.15 cells; assay: Dot-blot assay of HBV replication; format: cell-based; conditions: Hepatitis B virus, 144 h
Description: Compounds active in the HBV assembly assay are tested for their activity and toxicity in cellular assay. In the first anti-viral assay, the ability of compounds to inhibit HBV replication in an HBV-producing hepatoma cell line using the dot-blot method is evaluated.
Briefly, confluent monolayers of HepG2-2.2.15 cells are incubated with complete medium containing various concentrations of a test compound. Three days later, the culture medium is replaced with fresh medium containing the appropriately diluted test compound. Six days following the initial administration of the test compound, the cell culture supernatant is collected, and cell lysis is performed. The samples are applied onto Nylos membranes and DNA is immobilized to the membrane by UV cross-linking. After pre-hybridization, the HBV probe is added and the hybridization is performed overnight. The membranes are exposed to the Kodak films; antiviral activity is calculated from the reduction in HBV DNA levels (EC50). The EC50 for antiviral activity is calculated from the dose response curves of active compounds.
In the first anti-viral assay, the ability of compounds to inhibit HBV replication in an HBV-producing hepatoma cell line using the dot-blot method was evaluated.
Confluent monolayers of HepG2-2.2.15 cells were incubated with complete medium containing various concentrations of a test compound. Three days later, the culture medium was replaced with fresh medium containing the appropriately diluted test compound. Six days following the initial administration of the test compound, the cell culture supernatant was collected, and cell lysis was performed. The samples were applied onto Nylos membranes and DNA was immobilized to the membrane by UV cross-linking. After pre-hybridization, the HBV probe was added and the hybridization was performed overnight. The membranes were exposed to the Kodak films; antiviral activity was calculated from the reduction in HBV DNA levels (EC50). The EC50 for antiviral activity was calculated from the dose response curves of active compounds. […]

[2] = target: HBV C150Bo capsid protein (HBV CA protein) (Hepatitis B virus genotype D subtype adw, UniProt P03147, C107A/C48A/C61A/R150C); assay: HBV assembly assay (fluorescence quenching in vitro assembly); format: biochemical; conditions: at 10 μM
Sequence of HBV C150Bo capsid protein (HBV CA protein) (P03147 1-150 C48A/C61A/C107A/R150C): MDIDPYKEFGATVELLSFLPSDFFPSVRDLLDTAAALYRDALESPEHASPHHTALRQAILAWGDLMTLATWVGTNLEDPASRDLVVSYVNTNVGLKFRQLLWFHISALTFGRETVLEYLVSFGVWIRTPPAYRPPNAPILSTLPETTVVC

| Compound | inhibition at 10 µM [1] | Activity in HBV assembly assay [2] |
| --- | --- | --- |
| O=C(Nc1ccc(F)c(Cl)c1)c1cc(S(=O)(=O)N2CC(O)C(F)C2)c(F)cc1Cl (stereo not shown) [compound 1410] | > 50% | + (‘+’ indicates >50% activity at 10 μM) |
| O=C(Nc1ccc(F)c(Cl)c1)c1cccc(S(=O)(=O)N2CCC(O)(c3cccc(F)c3F)CC2)c1 [compound 775] | > 50% | + (‘+’ indicates >50% activity at 10 μM) |
| O=C(Nc1cc(F)c(F)c(Cl)c1)c1cccc(S(=O)(=O)N2CC(O)C2)c1 [compound 935] | > 50% | + (‘+’ indicates >50% activity at 10 μM) |
| O=C(Nc1ccc(F)c(CF)c1)c1cccc(S(=O)(=O)N2CC(O)C2)c1 [compound 646] | > 50% | + (‘+’ indicates >50% activity at 10 μM) |
| O=C(Nc1cccc(Br)c1)c1cccc(S(=O)(=O)N2CCN(C(=O)C3(O)CC3)CC2)c1 [compound 129] | > 50% | + (‘+’ indicates >50% activity at 10 μM) |
| CN(CC(O)CO)S(=O)(=O)c1cccc(C(=O)Nc2cccc(Cl)c2)c1 (stereo not shown) [compound 366] | > 50% | + (‘+’ indicates >50% activity at 10 μM) |
| O=C(Nc1ccc(F)c(Br)c1)c1cccc(S(=O)(=O)NC2CCCC2O)c1 (stereo not shown) [compound 843] | > 50% | + (‘+’ indicates >50% activity at 10 μM) |
| O=C(Nc1ccc(F)c(Cl)c1)c1cccc(S(=O)(=O)N2CCC(O)(c3ccccc3)CC2)c1 [compound 541] | > 50% | + (‘+’ indicates >50% activity at 10 μM) |
| O=C(Nc1ccc(F)c(Cl)c1)c1ccc(F)c(S(=O)(=O)N2CCC(CCO)CC2)c1 [compound 914] | > 50% | + (‘+’ indicates >50% activity at 10 μM) |
| O=C(Nc1ccc(F)c(F)c1)c1cc(S(=O)(=O)N2CC(O)C(F)C2)c(F)cc1Cl (stereo not shown) [compound 1413] | > 50% | + (‘+’ indicates >50% activity at 10 μM) |
| N#Cc1cc(NC(=O)c2cccc(S(=O)(=O)N3CCC(O)CC3)c2)ccc1F [compound 419] | > 50% | + (‘+’ indicates >50% activity at 10 μM) |
| O=C(Nc1ccc(F)c(Cl)c1)c1ccc(F)c(S(=O)(=O)N2CC(O)C2)c1 [compound 953] | > 50% | + (‘+’ indicates >50% activity at 10 μM) |
| Cc1cc(NC(=O)c2cccc(S(=O)(=O)N3CCN(C(=O)C4CC4)CC3)c2)ccc1F [compound 148] | > 50% | + (‘+’ indicates >50% activity at 10 μM) |
| O=C(Nc1ccc(F)c(Br)c1)c1ccc(F)c(S(=O)(=O)NC2CCC(O)C2)c1 (stereo not shown) [compound 959] | > 50% | + (‘+’ indicates >50% activity at 10 μM) |
| O=C(Nc1ccc(F)c(Cl)c1)c1ccc(Cl)c(S(=O)(=O)NC2CC(O)C2)c1 (stereo not shown) [compound 1042] | > 50% | + (‘+’ indicates >50% activity at 10 μM) |
| O=C(Nc1ccc(F)c(Cl)c1)c1cc(S(=O)(=O)N2CCC(O)CC2)ccc1F [compound 885] | > 50% | + (‘+’ indicates >50% activity at 10 μM) |
| O=C(Nc1ccc(F)c(Cl)c1)c1cc(S(=O)(=O)N2CCC(O)(CO)CC2)c(F)cc1Cl [compound 1380] | > 50% | + (‘+’ indicates >50% activity at 10 μM) |
| O=C(Nc1cc(F)c(F)c(F)c1)c1cc(S(=O)(=O)NC2COCC2O)c(F)cc1Cl (stereo not shown) [compound 1404] | > 50% | + (‘+’ indicates >50% activity at 10 μM) |
| O=C(Nc1cc(F)c(F)c(F)c1)c1ccc(F)c(S(=O)(=O)N2CCC(CCO)CC2)c1 [compound 900] | > 50% | + (‘+’ indicates >50% activity at 10 μM) |
| O=C(Nc1cc(F)c(F)c(F)c1)c1ccc(F)c(S(=O)(=O)N2CCC(O)C(CF)C2)c1 (stereo not shown) [compound 1283] | > 50% | + (‘+’ indicates >50% activity at 10 μM) |
| O=C(Nc1cccc(Br)c1)c1cccc(S(=O)(=O)N2CCN(c3ccncc3)CC2)c1 [compound 126] | > 50% | + (‘+’ indicates >50% activity at 10 μM) |

| Compound | inhibition at 10 µM [1] | Activity in HBV assembly assay [2] |
| --- | --- | --- |
| CC1CN(S(=O)(=O)c2cccc(C(=O)Nc3cc(F)c(F)c(F)c3)c2)CCC1CCO (stereo not shown) [743D1] | > 50% | + (‘+’ indicates >50% activity at 10 μM) |
| O=C(Nc1ccc(F)c(F)c1)c1cc(S(=O)(=O)N2CCC(O)CC2)c(F)cc1Cl [compound 1338] | > 50% | + (‘+’ indicates >50% activity at 10 μM) |
| O=C(Nc1cc(F)c(F)c(F)c1)c1cc(S(=O)(=O)N2CCC(O)(CO)CC2)ccc1Cl [compound 1189] | > 50% | + (‘+’ indicates >50% activity at 10 μM) |
| CN(CCO)S(=O)(=O)c1cc(C(=O)Nc2ccc(F)c(Cl)c2)c(Cl)cc1F [compound 1345] | > 50% | + (‘+’ indicates >50% activity at 10 μM) |
| O=C(Nc1cc(F)c(F)c(F)c1)c1ccc(F)c(S(=O)(=O)N2CC(O)C2)c1 [compound 901] | > 50% | + (‘+’ indicates >50% activity at 10 μM) |
| O=C(Nc1ccc(F)c(Br)c1)c1ccc(Cl)c(S(=O)(=O)N2CCC(CCO)CC2)c1 [compound 1087] | > 50% | + (‘+’ indicates >50% activity at 10 μM) |
| O=C(Nc1cc(F)c(F)c(F)c1)c1ccc(F)c(S(=O)(=O)N2CCC(O)C(F)C2)c1 (single isomer, unassigned) [960D1] | > 50% | + (‘+’ indicates >50% activity at 10 μM) |
| O=C(Nc1cc(F)c(F)c(F)c1)c1cc(S(=O)(=O)N2CC(O)C2)ccc1Cl [compound 1153] | > 50% | + (‘+’ indicates >50% activity at 10 μM) |
| O=C(Nc1ccc(F)c(Cl)c1)c1cccc(S(=O)(=O)N2CCC(O)C(Cc3ccccc3)C2)c1 (stereo not shown) [713D2] | > 50% | + (‘+’ indicates >50% activity at 10 μM) |
| CC1CN(S(=O)(=O)c2cccc(C(=O)Nc3cc(F)c(F)c(F)c3)c2)CCC1O (stereo not shown) [610D2] | > 50% | + (‘+’ indicates >50% activity at 10 μM) |
| O=C(Nc1cccc(Br)c1)c1cccc(S(=O)(=O)N2CCC(CO)CC2)c1 [compound 065] | > 50% | + (‘+’ indicates >50% activity at 10 μM) |
| O=C(Nc1cc(F)c(F)c(F)c1)c1ccc(F)c(S(=O)(=O)N2CCC(O)C2)c1 (stereo not shown) [compound 903] | > 50% | + (‘+’ indicates >50% activity at 10 μM) |
| CN(CCO)S(=O)(=O)c1cccc(C(=O)Nc2ccc(F)cc2)c1 [compound 332] | > 50% | + (‘+’ indicates >50% activity at 10 μM) |
| O=C(Nc1cc(F)c(F)c(Cl)c1)c1cccc(S(=O)(=O)N2CCC(O)CC2)c1 [compound 595] | > 50% | + (‘+’ indicates >50% activity at 10 μM) |
| O=C(Nc1ccc(F)c(Cl)c1)c1ccc(F)c(S(=O)(=O)NC2CCC(O)C2)c1 (stereo not shown) [compound 958] | > 50% | + (‘+’ indicates >50% activity at 10 μM) |
| O=C(Nc1cc(F)c(F)c(C(F)F)c1)c1cccc(S(=O)(=O)N2CCC(O)C(F)C2)c1 (stereo not shown) [824D2] | > 50% | + (‘+’ indicates >50% activity at 10 μM) |
| CN(CCO)S(=O)(=O)c1cccc(C(=O)Nc2cccc(Br)c2)c1 [compound 079] | > 50% | + (‘+’ indicates >50% activity at 10 μM) |
| O=C(Nc1cc(F)c(F)c(F)c1)c1ccc(CO)c(S(=O)(=O)N2CCC(O)CC2)c1 [compound 1420] | > 50% | + (‘+’ indicates >50% activity at 10 μM) |
| O=C(Nc1ccc(F)c(Br)c1)c1cccc(S(=O)(=O)N2CC(O)C(F)C2)c1 (stereo not shown) [compound 826] | > 50% | + (‘+’ indicates >50% activity at 10 μM) |
| O=C(Nc1ccc(F)c(Br)c1)c1cccc(S(=O)(=O)NC2CCCC(O)C2)c1 (stereo not shown) [867D2] | > 50% | + (‘+’ indicates >50% activity at 10 μM) |
